Laboratory results reported in ChEMBL document CHEMBL1139787, “Synthetic tyrosyl gallate derivatives as potent melanin formation inhibitors” (Bioorg Med Chem Lett, 2007).

Tests used:
[1] = Inhibition of melanin formation in Melan-a cells after 5 days; type: functional, cell-based; conditions: 120 h
[2] = Cytotoxicity againt Melan-a cells by MTT assay; type: cell-based; conditions: Mus musculus
[3] = DPPH radical scavenging activity after 30 mins; type: functional
[4] = target: Tyrosinase (Mus musculus) (UniProt P11344); assay: Inhibition of tyrosinase in Melan-a cells
Chain of Tyrosinase (Mus musculus) (P11344 whole entry, looked up): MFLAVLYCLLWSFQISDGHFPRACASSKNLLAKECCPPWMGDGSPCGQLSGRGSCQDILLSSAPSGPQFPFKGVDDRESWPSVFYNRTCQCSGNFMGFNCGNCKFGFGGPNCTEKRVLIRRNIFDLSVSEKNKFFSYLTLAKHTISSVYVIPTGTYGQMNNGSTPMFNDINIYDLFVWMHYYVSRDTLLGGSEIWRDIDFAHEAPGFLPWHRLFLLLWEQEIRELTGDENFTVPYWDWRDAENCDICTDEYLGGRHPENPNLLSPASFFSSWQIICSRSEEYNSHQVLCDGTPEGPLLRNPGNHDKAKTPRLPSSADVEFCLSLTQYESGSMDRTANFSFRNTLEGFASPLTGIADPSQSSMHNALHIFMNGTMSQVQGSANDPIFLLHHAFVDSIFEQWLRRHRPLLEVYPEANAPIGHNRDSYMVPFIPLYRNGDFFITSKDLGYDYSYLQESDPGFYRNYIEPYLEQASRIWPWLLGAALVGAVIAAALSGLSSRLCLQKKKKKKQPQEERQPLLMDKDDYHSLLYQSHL

| Structure (SMILES) | IC50 [1] [µM] | IC50 [3] [µM] | IC50 [4] [µM] | IC50 [2] [µM] |
| --- | --- | --- | --- | --- |
| O=C1O[C@H]([C@@H](O)CO)C(O)=C1O [ASCORBIC ACID] |  | 13.6 |  |  |
| O=C(OCCc1ccccc1O)c1cc(O)c(O)c(O)c1 | 13.7 | 8.31 | 14.5 | > 50 |
| Cc1c(C)c2c(c(C)c1O)CC[C@@](C)(CCCC(C)CCCC(C)CCCC(C)C)O2 (single isomer, unassigned) [ALPHA-TOCOPHEROL] |  | 9.89 |  |  |

The next lines start with results.

| IC50 [1] [µM] | IC50 [3] [µM] | IC50 [4] [µM] | Structure (SMILES) | IC50 [2] [µM] |
| --- | --- | --- | --- | --- |
| 8.94 | 7.78 | 15.2 | O=C(OCCc1cccc(O)c1)c1cc(O)c(O)c(O)c1 | > 50 |
|  | 7.52 | 4.93 | O=C(OCCc1ccc(O)cc1)c1cc(O)c(O)c(O)c1 | > 10 |
| 118 |  |  | OC[C@H]1O[C@@H](Oc2ccc(O)cc2)[C@H](O)[C@@H](O)[C@@H]1O [ARBUTIN] | > 1500 |
